Assay results from patent US11820762B2, “Compounds as potential therapeutic agents targeting various neurodegenerative diseases” (The Hong Kong University of Science and Technology, priority 2020, dated 2023).

How the values were obtained:
[1] = system: DNA (G4C2)2 (SEQ ID NO: 4) G4; test: 1D 1H-NMR titration of DNA (G4C2)2 G4; assay type: binding; conditions: cA at 1:1, 1:5, 1:10
Method: (§1) Single […] were purchased from Integrated DNA Technologies (IDT) and Takara. Single-strand DNA/RNA sample at 100 μM was then annealed by heating up to 95° C. for 15 mins, and slowly cooled to room temperature in the annealing buffer (70 mM KCl, 20 mM potassium phosphate (pH 7.0)) for overnight. The final NMR samples contained 0.1 mM DNA or RNA in 70 mM KCl and 20 mM potassium phosphate buffer (pH 7.0).
(§2) The 1D ^1H-NMR spectra were performed at 25° C. All compounds were dissolved in isotope-labeled d6-DMSO (Sigma-Aldrich) at about 50 mM concentration, working as stock solutions. To avoid chemical shift changes of DNA/RNA G4 resulted from d6-DMSO addition, […] d6-DMSO was added into 500 μL of 0.1 mM DNA/RNA G4 solution in the NMR buffer (20 mM potassium phosphate buffer and 70 mM KCl, pH 7.0, 10% D2O) and then 1D ^1H-NMR spectrum was recorded as a reference. During NMR titration experiments of adding each compound into the DNA/RNA G4 solution, the maximal volume of 10 μL of each compound in d6-DMSO solution was regarded as a final data point.
(§3) In addition to the four-repeat G4C2 DNA G4, there are parallel and hybrid G4 conformations formed simultaneously by the two-repeat G4C2 DNA^38,39. […]

[2] = Parallel artificial membrane permeability assay (PAMPA); assay type: in vitro ADME; conditions: 500 μM; 37° C., 18 hours
Method: 500 μL of 500 μM test compound and 200 μM Equilibrium Standards for each test compound were prepared. 5 μL DMSO plus 245 μL PBS served as blank control. Firstly, 300 μL PBS was added to each well in the acceptor plate. With the donor plate in its tray, 5 μL 4% Lecithin in Dodecane was added directly to the well membranes of the donor plate. 200 μL of each 500 μM test compound was added to duplicate wells of the donor plate. The donor plate was carefully placed into the acceptor plate wells and incubated at 37° C. for 18 hours. Then the liquid in acceptor plate wells was collected as Acceptor Solution for analysis. Absorbance spectrum from 200 nm to 500 nm in 10 nm intervals was read to determine the peak absorbance of test compounds and blank control.
In addition, we also tested the permeability on live cells. Neuro2a cells treated with cA at different concentrations (10 μg/ml, 20 μg/ml) for different incubation time (24 h, 48 h) were lysed. Supernatants of cell lysates were collected and analyzed by UPLC-MS. Meanwhile, cell media from different treatment groups were used as control. […] In contrast, the intensity of cA signal was the same in the three corresponding cell media groups (FIG. 25, 4-6).

[3] = system: DNA (G4C2)4 (SEQ ID NO: 5) G4; test: 1D 1H-NMR titration of DNA (G4C2)4 G4; assay type: binding; conditions: for binding to DNA (G4C2)4 G4 by NMR titration: G4:compound ratio 1:1 to 1:10
Method: as §1, §2
We next confirmed the binding of cA and DNA (G4C2)4 (SEQ ID NO: 5) G4 by NMR titration experiments.

[4] = system: RNA (G4C2)2 (SEQ ID NO: 8) G4; test: 1D 1H-NMR titration of RNA (G4C2)2 G4; assay type: binding; conditions: ratios 1:3, 1:5, 1:10
Method: as §1
as §2, with “point. […]” for “point.”

[5] = system: human telomeric variant htel21_T18 G4; test: 1D 1H-NMR titration of human telomeric variant htel21_T18 G4; assay type: binding; conditions: cA at 1:10
Method: as §1, §2, §3

[6] = system: differentiated HT22 cells; test: cells; assay type: cell-based; conditions: for EC50: Mus musculus, HT-22, differentiated HT22 cells pre-treated with 5 mM L-glutamate, cell viability; for neuroprotective activity compared with cA: comparison of analogs
Method: Cytotoxicity of compounds was tested by MTT assay. Cells were grown in DMEM (Gibco) with 10% FBS and 1% penicillin-streptomycin at 37° C. with 5% CO2. In total, 5×10^3 cells were seeded in each well of 96-well plates and cultured for 24 hours. Then cells were treated with different concentrations of compounds dissolved in DMSO for another 24 hours. After incubating with 20 μl of MTT (5 mg/mL) for each well at 37° C. for another four hours, 100 μl of DMSO was added to dissolve formazan. Absorbance was measured using a Multiskan™ FC microplate photometer at 570 nm. IC50 data were analyzed with GraphPad Prism software.
Cultured HT22 cells were differentiated by applying 10 μM retinoic acid (Sigma-Aldrich, R2625-50MG) and 500 μM cAMP (Sigma-Aldrich, A6885) in DEME medium supplied with 0.5% FBS (differentiation medium) and incubated 48 hours before adding other treatments. 5 mM L-glutamate acid was applied to the original differentiation medium for further 24-hours incubation. Cell viability was measured by MTT assay described above.
In the C9orf72 associated ALS/FTD, the G4C2 HRE make motor neurons more vulnerable to aberrant neuron excitation^43. Meanwhile, the hyperactivation of glutamate receptors drives a toxic level of neuronal activity, promoting the non-ATG (RAN) translation of G4C2 repeat-associated DPR proteins^44, leading to further toxicity of motor neurons. Thus, we would like to test our compounds in a glutamate (E)-induced excitotoxicity cell model.

RRM domain of hnRNP H = target: T1, RRM domain of hnRNP H (Homo sapiens, UniProt P31943); test: 1H-15N HSQC NMR titration of hnRNP H RRM domain; assay type: binding; conditions: ratios 1:5 and 1:10
T1 construct: HSQC spectra of RRM1/2 of hnRNP H; hexahistidine (cleaved yes); made in house; host or cells: Escherichia coli BL21(DE3), pET-28a(+)
T1 sequence (P31943 1-194 limits assumed): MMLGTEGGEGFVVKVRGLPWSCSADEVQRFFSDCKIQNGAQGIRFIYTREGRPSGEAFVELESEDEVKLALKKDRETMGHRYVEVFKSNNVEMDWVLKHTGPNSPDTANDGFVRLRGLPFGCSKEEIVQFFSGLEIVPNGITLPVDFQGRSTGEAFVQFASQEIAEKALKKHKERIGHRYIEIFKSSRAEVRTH
Method: The coding sequence of the RRM domain of hnRNP H/F, or human Orc6 was inserted into the expression vector pET-28a(+) (Novagen). Protein was expressed in Escherichia coli BL21(DE3) at 37° C. for 5 hours. Cell lysates were subject to affinity purification with nickel-nitrilotriacetic acid resin (Qiagen) followed by cleavage of hexahistidine tag with Protease 3C enzyme. Products were further purified on a Superdex 75 column (GE Healthcare). For NMR studies, uniformly ^15N labeled protein was expressed and purified as described above, except for cells grown in M9 medium containing 100% ^15N enriched ammonium chloride (Cambridge Isotopes) and d-glucose.
Titration experiments were performed by recording a series of 2D ^15N-HSQC spectra on uniformly ^15N-labeled RRM domain (˜0.1 mM) in the presence of different amounts of DNA/RNA or compounds at 25° C. Protein samples and stock solutions of DNA/RNA were all prepared in 20 mM potassium phosphate buffer and 70 mM KCl, pH 7.0, 10% D2O. All compounds were dissolved in isotope-labeled d6-DMSO (Sigma-Aldrich) at about 50 mM concentration, working as stock solutions. To avoid chemical shift changes of protein samples resulted from d6-DMSO addition, 10 μL d6-DMSO was added into 500 μL of 0.1 mM protein solution in the NMR buffer (20 mM potassium phosphate buffer and 70 mM KCl, pH 7.0, 10% D2O) and then the 2D HSQC was recorded as a reference.
In this scenario, specific RNA-binding proteins (RBPs), like hnRNP H, are recruited by the RNA foci, resulting in RNA processing impairment and further cytotoxicity to the central nervous system^30,36,37. Therefore, we tested the binding possibility of cA with the RRM domain of hnRNP H by NMR titration. […] Intriguingly, the DNA (G4C2)4 (SEQ ID NO: 5) G4 was also shown a potent binding affinity to the RRM domain of hnRNP H (FIG. 4C).

Tau-R3 = target: T2, Tau-R3 (Homo sapiens, UniProt P10636); test: Thioflavin T (ThT) fluorescent tau-R3 aggregation assay; assay type: biochemical; conditions: 20 μM Tau-R3, 10 μM heparin, read-out: IC50 of Tau-R3 aggregation inhibition (converted)
T2 construct: Tau-R3 protein was synthesized and purchased from ChinaPeptides Co., Ltd; purchased ChinaPeptides Co., Ltd; host or cells: chemical synthesis
T2 sequence (P10636 623-653 limits assumed): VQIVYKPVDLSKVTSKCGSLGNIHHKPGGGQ
Method: Tau-R3 protein was synthesized and purchased from ChinaPeptides Co., Ltd. ThT (ab120751, 1 mM) solution was freshly prepared in 50 mM Tris-HCl buffer (pH 7.4) and passed through a 0.45 μm pore size filter to remove insoluble particles before use. Tau-R3 (20 μM) was incubated with 20 μM ThT and 10 μM heparin in the presence or absence of cA, cB and cC. Samples in 200 μL were added to 96-well plates and incubated at 37° C. for 24-48 hours. ThT fluorescence intensity was recorded using a microplate reader with 440/480 nm excitation/emission filters at different time points. Non-linear regression analysis was performed to fit the boltzmann sigmoidal.
In the C9orf72 ALS/FTD, there is a strong genetic association between the microtubule-binding protein, tau and the G4C2 HRE. […] The co-expression of Tau and G4C2 repeats produces a synergistic deterioration of the neurodegeneration phenotype of ALS/FTD^46. Considering the tight correlation of Tau aggregation with the ALS/FTD pathogenesis, we tested our compounds in a non-cell-based Tau-R3 aggregation inhibition assay. […] Moreover, we conducted high magnification TEM imaging to characterize the morphological changes of Tau-R3 fibrils with cA, cB and cC treatments. […] Furthermore, the misfolding of tau protein into filaments in neurons of the central nervous system can be found in various neurodegenerative diseases, such as Alzheimer's disease et al. Therefore, the inhibition on tau aggregation represented a potential of cA and its derivatives in targeting multiple other neurodegenerative diseases more than ALS.

| SMILES | binding to DNA (G4C2)4 G4 by NMR titration [3] | EC50 [6] | neuroprotective activity compared with cA [6] | IC50 (Tau-R3) | cytotoxicity (structure-activity summary) [6] | also measured |
| --- | --- | --- | --- | --- | --- | --- |
| N=C(N)c1ccc(-c2ccc(-c3ccc(-c4ccc(C(=N)N)cn4)o3)o2)nc1 [DB1246, reference compound] | strongly bound | – | – | – | – | binding to DNA (G4C2)2 G4 by NMR titration [1]: strongly bound; permeability (PAMPA) [2]: much worse permeability than cA, cB, cC; binding to RNA (G4C2)2 G4 by NMR titration [4]: strongly bound; binding to htel21_T18 G4 by NMR titration [5]: strongly bound |
| COCCOC(=O)C1=C(C)NC(C)=C(C(=O)OC(C)C)C1c1cccc([N+](=O)[O-])c1 (stereo not drawn) [nimodipine, reference compound] | – | 1.14 µM | – | – | – | – |
| C[C@@]1(O)Cc2cc3c(c(O)c2C(=O)O1)-c1c(c(O)c(O)c2c(=O)c4cccc(O[C@@H]5OC(C(=O)O)=C[C@H](O)[C@H]5O)c4oc12)CC3 [cF, chrexanthomycin F] | proved to bind | – | worse than cA | – | – | binding affinity order according to NMR titration ([3]; DNA (G4C2)4 G-quadruplex and hnRNP H, FIGS. 3C-3E): cC>cA>cB>cF; binding to RRM domain of hnRNP H by NMR titration (RRM domain of hnRNP H): much weaker bindings |
| COc1c2c(c(O)c3c(=O)c4cccc(O[C@@H]5O[C@H](C(=O)O)[C@@H](O)[C@H](O)[C@H]5O)c4oc13)-c1c(cc(CC(C)=O)c(C(=O)O)c1O)CC2 [cD, chrexanthomycin D] | – | 53.6 µM | worse than cA | 4.75 µM | showed cytotoxicity | – |
| CC12CC3CC(C)(C1)CC(N)(C3)C2 [memantine, reference compound] | – | 23.9 µM | – | – | – | – |
| COc1c2c(c(OC)c3c(=O)c4cccc(O[C@@H]5O[C@H](C(=O)O)[C@@H](O)[C@H](O)[C@H]5O)c4oc13)-c1c(cc(CC(C)=O)c(C(=O)O)c1O)CC2 [cE, chrexanthomycin E] | – | – | worse than cA | 6.13 µM | showed cytotoxicity | – |
